Results as given in patent US20160030407A1, “Method of Treating Inflammatory Lung Disease” (priority 2010, published 2016).
Where “and” joins values, the source holds several entries; their conditions need not be identical. Equal values may be shown once. Entries after “also recorded” stand apart in the source; their conditions may differ.

What was measured:
[1] = molecular target: T1, nAChR α4/β2 (Homo sapiens, UniProt P17787+P43681); assay: nAChR α4/β2 channel agonist assay (FLIPR); type: cell-based; details: 0.3-1000 μM
T1 construct: host or cells: HEK293 cells, transient
T1 sequence (P43681 29-627): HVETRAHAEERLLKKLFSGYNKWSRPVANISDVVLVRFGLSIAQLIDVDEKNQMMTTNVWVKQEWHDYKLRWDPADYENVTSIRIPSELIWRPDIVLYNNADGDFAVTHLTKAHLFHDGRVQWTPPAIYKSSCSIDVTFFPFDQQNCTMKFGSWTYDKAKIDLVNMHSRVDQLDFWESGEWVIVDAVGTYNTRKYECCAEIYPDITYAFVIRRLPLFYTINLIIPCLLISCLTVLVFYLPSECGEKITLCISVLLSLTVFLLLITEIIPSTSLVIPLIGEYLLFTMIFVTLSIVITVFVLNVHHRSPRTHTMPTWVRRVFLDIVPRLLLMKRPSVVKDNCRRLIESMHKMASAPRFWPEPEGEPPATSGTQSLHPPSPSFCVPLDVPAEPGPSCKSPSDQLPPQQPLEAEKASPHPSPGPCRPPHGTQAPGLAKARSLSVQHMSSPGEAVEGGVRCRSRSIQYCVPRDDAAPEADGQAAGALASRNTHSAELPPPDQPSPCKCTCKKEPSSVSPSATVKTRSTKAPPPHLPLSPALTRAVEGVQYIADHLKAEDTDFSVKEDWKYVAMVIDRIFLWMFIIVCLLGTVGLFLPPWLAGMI
T1 sequence (P17787 26-502): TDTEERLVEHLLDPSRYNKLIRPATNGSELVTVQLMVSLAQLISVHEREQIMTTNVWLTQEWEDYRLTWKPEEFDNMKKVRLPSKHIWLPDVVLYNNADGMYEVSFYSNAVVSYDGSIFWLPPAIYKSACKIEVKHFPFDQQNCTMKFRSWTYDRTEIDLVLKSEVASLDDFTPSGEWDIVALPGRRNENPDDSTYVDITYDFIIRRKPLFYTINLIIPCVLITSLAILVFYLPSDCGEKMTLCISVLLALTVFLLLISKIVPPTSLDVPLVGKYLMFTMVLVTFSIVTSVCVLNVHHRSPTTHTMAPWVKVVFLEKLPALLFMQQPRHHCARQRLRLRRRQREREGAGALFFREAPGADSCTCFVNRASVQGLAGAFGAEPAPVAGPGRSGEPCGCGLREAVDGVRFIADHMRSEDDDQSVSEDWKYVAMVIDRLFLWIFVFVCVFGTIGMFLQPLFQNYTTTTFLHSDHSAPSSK
Description: Briefly, cells were incubated with […] dye for 30 min at 37° C.

[2] = tested on: IL-1β; assay: LPS-induced IL-1β release in whole human blood; type: cell-based
Description: Whole human blood was treated with LPS to stimulate inflammatory responses. […] The inflammatory molecule IL-1β was measured after 16 hours.

[3] = tested on: T cells, antigen presentation; assay: Experimental Autoimmune Thyroiditis (Example 16A): lymphoid typing by flow cytometry; type: in vivo, mice; details: p=0.0143
Description: Thyroiditis was induced by injection of thyroglobulin emulsified in complete Freund's adjuvant […]. On days 0 and 7, female mice received subcutaneous injection of 100 μg thyroglobulin (2 injections of 50 μg each). Control mice drank water. […] Mice were sacrificed on day 21.
Cervical lymph nodes were removed for lymphoid typing by flow cytometry. Spleen and peritoneal macrophages were removed for ex vivo stimulation.

[4] = tested on: autoimmune thyroiditis; assay: Autoimmune thyroiditis model (Example 16B): thyroid histopathology; type: in vivo, CBA/J mice; details: 0.05 mg/ml in drinking water; day 21; p=0.023
Description: In another experiment, eighteen CBA/J female mice were immunized with mouse thyroglobulin, emulsified in complete Freund's adjuvant, on day 0 and day 7. One group of mice (n=10) drank regular water. […] Mice were sacrificed 21 days after the first immunization to collect the thyroid gland and the blood. The thyroid was analyzed for the presence of infiltrating mononuclear cells. The blood was analyzed for the levels of antibodies against thyroglobulin.

[5] = Single i.v. dose toxicity: urinalysis; type: in vivo, Sprague-Dawley rats; details: for Urinalysis KETONES / Urinalysis BILIRUBIN / Urinalysis BLOOD / Urinalysis PROTEIN / Urinalysis pH / Urinalysis CLARITY / Urinalysis COLOR / Urinalysis GLUCOSE / Urinalysis UROBILINOGEN / Urinalysis VOLUME: individual animals M and F
Source text: (§1) On day 15, urine was collected on all surviving animals for urinalysis. The animals were euthanized and bled via cardiac puncture. Blood was collected for hematology, clinical chemistry, and coagulation analysis. Tissues were collected, weighed, and stored in 10% neutral-buffered formalin for possible future analysis.

[6] = Single i.v. dose toxicity: hematology; type: in vivo, Sprague-Dawley rats
Source text: as §1

[7] = Anatabine dose 0.1 mg/kg, 0.1 mg/kg, female rats
[8] = Anatabine dose 0.1 mg/kg, 0.1 mg/kg, male rats
[9] = Anatabine dose 0.1 mg/kg, female rats
[10] = Anatabine dose 0.1 mg/kg, male rats
[11] = Anatabine dose 0.75 mg/kg, 0.75 mg/kg, female rats
[12] = Anatabine dose 0.75 mg/kg, 0.75 mg/kg, male rats
[13] = Anatabine dose 0.75 mg/kg, female rats
[14] = Anatabine dose 0.75 mg/kg, male rats
[15] = 0.1 mg/kg, gender F, group mean
[16] = 0.1 mg/kg, gender M, group mean
[17] = 0.75 mg/kg, gender F, group mean
[18] = 0.75 mg/kg, gender M, group mean
[19] = anatabine 0.1 mg/kg, female rats, individual animals
[20] = anatabine 0.1 mg/kg, male rats, individual animals
[21] = anatabine 0.75 mg/kg, female rats, individual animals
[22] = anatabine 0.75 mg/kg, male rats, individual animals

C1=CCC(c2cccnc2)NC1 (racemic) [Anatabine, 1,2,3,6-tetrahydro-[2,3′]bipyridinyl]
agonist activity [1]: full agonist activity
IL-1β production over time ([2]; whole human blood + LPS (Example 15)): rapid and continuous effect on the suppression
accumulation of IL-1β ([2]; whole human blood + LPS, 16 hours (Example 13)): reduced accumulation of IL-1β
IL-1β, area under the dose-response curve ([2]; whole human blood + LPS, 16 hours (Example 14)): reduced accumulation of IL-1β
activated T cells vs control ([3]; cervical lymph nodes): fewer activated T cells
regulatory T cells vs control ([3]; cervical lymph nodes): more regulatory T cells
regulatory T cells vs control ([3]; cervical lymph nodes, listed as anatabine): fewer T regulatory cells than control mice
ability to present antigens vs control [3]: a lower ability to present antigens
frequency and severity of thyroiditis [4]: developed thyroiditis less frequently and of lower severity
Urinalysis KETONES ([5]; Anatabine dose 0.1 mg/kg, 0.1 mg/kg): NEGATIVE
Urinalysis BILIRUBIN [5, 7]: NEGATIVE
Urinalysis BLOOD [5, 7]: NEG- (3×) and TRACE
Urinalysis PROTEIN [5, 7]: NEG-
Urinalysis pH [5, 7]: 7.5 (2×) and 7 and 8
Urinalysis BILIRUBIN [5, 8]: NEGATIVE
Urinalysis BLOOD [5, 8]: TRACE (2×) and NEG-
Urinalysis PROTEIN [5, 8]: TRACE (3×) and NEG-
Urinalysis pH [5, 8]: 8.5 and 7.5 (2×) and 7
Urinalysis CLARITY [5, 9]: HAZY
Urinalysis COLOR [5, 9]: YELLOW
Urinalysis GLUCOSE [5, 9]: NEGATIVE
Urinalysis UROBILINOGEN [5, 9]: NORMAL
Urinalysis VOLUME [5, 9]: <0.5 mL
Urinalysis CLARITY [5, 10]: HAZY
Urinalysis COLOR [5, 10]: YELLOW
Urinalysis GLUCOSE [5, 10]: NEGATIVE
Urinalysis UROBILINOGEN [5, 10]: NORMAL
Urinalysis VOLUME [5, 10]: <0.5 mL
Urinalysis CLARITY ([5]; Anatabine dose 0.75 mg/kg): HAZY
Urinalysis COLOR ([5]; Anatabine dose 0.75 mg/kg): YELLOW
Urinalysis VOLUME ([5]; Anatabine dose 0.75 mg/kg): <0.5 mL
Urinalysis PROTEIN ([5]; Anatabine dose 0.75 mg/kg, 0.75 mg/kg): TRACE
Urinalysis BILIRUBIN [5, 11]: NEGATIVE
Urinalysis BLOOD [5, 11]: TRACE and NEG-
Urinalysis KETONES [5, 11]: NEGATIVE
Urinalysis pH [5, 11]: 7.5 and 6 and 8 (2×)
Urinalysis BILIRUBIN [5, 12]: NEGATIVE
Urinalysis BLOOD [5, 12]: TRACE and NEG- (3×)
Urinalysis KETONES [5, 12]: NEGATIVE
Urinalysis pH [5, 12]: 7
Urinalysis GLUCOSE [5, 13]: NEGATIVE
Urinalysis UROBILINOGEN [5, 13]: NORMAL
Urinalysis GLUCOSE [5, 14]: NEGATIVE
Urinalysis UROBILINOGEN [5, 14]: NORMAL
urinalysis parameters vs controls ([5]; rat, day 15 after single i.v. dose): no notable differences in any of the urinalysis parameters
BASOPHIL [6, 15]: 0.0%
EOSINOPHIL [6, 15]: 0.0%
MCV [6, 15]: 60.0 fL
MONOCYTE [6, 15]: 1.8%
NEUTROPHIL SEG [6, 15]: 8.0%
PLATELET COUNT [6, 15]: 997300 µL⁻¹
RBC [6, 15]: 7.8e+06 µL⁻¹
RETICULOCYTE COUNT [6, 15]: 4.5%
WBC [6, 15]: 9300 µL⁻¹
BASOPHIL [6, 16]: 0.0%
EOSINOPHIL [6, 16]: 0.2%
MONOCYTE [6, 16]: 2.0%
NEUTROPHIL SEG [6, 16]: 8.6%
PLATELET COUNT [6, 16]: 1.2486e+06 µL⁻¹
RBC [6, 16]: 7.4e+06 µL⁻¹
RETICULOCYTE COUNT [6, 16]: 5.5%
WBC [6, 16]: 15600 µL⁻¹
BASOPHIL [6, 17]: 0.0%
EOSINOPHIL [6, 17]: 0.0%
MONOCYTE [6, 17]: 0.8%
NEUTROPHIL SEG [6, 17]: 8.6%
PLATELET COUNT [6, 17]: 1.2696e+06 µL⁻¹
RBC [6, 17]: 7.5e+06 µL⁻¹
RETICULOCYTE COUNT [6, 17]: 3.3%
WBC [6, 17]: 10300 µL⁻¹
BASOPHIL [6, 18]: 0.0%
EOSINOPHIL [6, 18]: 0.0%
MCHC [6, 18]: 34.0%
MONOCYTE [6, 18]: 1.4%
NEUTROPHIL SEG [6, 18]: 9.8%
PLATELET COUNT [6, 18]: 1.3258e+06 µL⁻¹
RBC [6, 18]: 7.5e+06 µL⁻¹
RETICULOCYTE COUNT [6, 18]: 4.4%
WBC [6, 18]: 12100 µL⁻¹
ANISOCYTOSIS [6, 19]: SLIGHT
BASOPHIL [6, 19]: 0%
EOSINOPHIL [6, 19]: 0%
HCT [6, 19]: 44%
HGB [6, 19]: 17 gm/dL
LYMPHOCYTE [6, 19]: 89% and 90% and 91% and 93% and 88%
MCHC [6, 19]: 34%
MONOCYTE [6, 19]: 3% and 2% (2×) and 1% (2×)
NEUTROPHILSEG [6, 19]: 8% (2×) and 7% and 6% and 11%
PLATELETEST [6, 19]: ADEQUATE; also recorded: DECREASED
POLYCHROMASIA [6, 19]: SLIGHT
RETICULOCYTE COUNT [6, 19]: 4.8% and 5.4% and 6.1% and 3.7% and 2.4%
ANISOCYTOSIS [6, 20]: SLIGHT
BASOPHIL [6, 20]: 0%
EOSINOPHIL [6, 20]: 0% (4×) and 1%
HCT [6, 20]: 45%
LYMPHOCYTE [6, 20]: 87% (2×) and 94% and 90% and 88%
MCHC [6, 20]: 34% (2×) and 32%
MONOCYTE [6, 20]: 1% (2×) and 3% (2×) and 2%
NEUTROPHILSEG [6, 20]: 12% and 3% and 7% and 10% and 11%
PLATELETEST [6, 20]: ADEQUATE; also recorded: INCREASED
POLYCHROMASIA [6, 20]: SLIGHT
RETICULOCYTE COUNT [6, 20]: 6.1% and 5.4% and 4.7% and 5.6% and 5.9%
ANISOCYTOSIS [6, 21]: SLIGHT
BASOPHIL [6, 21]: 0%
EOSINOPHIL [6, 21]: 0%
HGB [6, 21]: 15 gm/dL
LYMPHOCYTE [6, 21]: 93% (2×) and 87% and 91% and 89%
MONOCYTE [6, 21]: 1% (2×) and 0% (2×) and 2%
NEUTROPHILSEG [6, 21]: 6% and 12% and 9% (2×) and 7%
PLATELETEST [6, 21]: ADEQUATE; also recorded: INCREASED
POLYCHROMASIA [6, 21]: SLIGHT
RETICULOCYTE COUNT [6, 21]: 3.4% and 1.8% and 3.2% and 3.8% and 4.1%
ANISOCYTOSIS [6, 22]: SLIGHT
BASOPHIL [6, 22]: 0%
EOSINOPHIL [6, 22]: 0%
LYMPHOCYTE [6, 22]: 86% and 89% (2×) and 92% and 88%
MCH [6, 22]: 21 UUG and 22 UUG
MONOCYTE [6, 22]: 1% (3×) and 2% (2×)
NEUTROPHILSEG [6, 22]: 13% and 10% (3×) and 6%
PLATELETEST [6, 22]: ADEQUATE; also recorded: DECREASED
POLYCHROMASIA [6, 22]: SLIGHT
RETICULOCYTE COUNT [6, 22]: 3.6% and 4.2% and 4.1% and 4.7% and 5.3%
mean corpuscular hemoglobin concentration (MCHC) vs control ([6]; female rats, 0.1 mg/kg anatabine i.v.): small but statistically significant decrease
mean corpuscular volume (MCV) and mean corpuscular hemoglobin (MCH) vs control ([6]; female rats, […] anatabine, 0.75 mg/kg nicotine i.v.): small, but statistically significant decreases
